Calls of active or inactive are those of the source. The calls are words filed in the database; no cut-off is given here.
Legend:
[1] = target: T1, Subtilisin Carlsberg (Bacillus licheniformis) (UniProt P00780); assay: Inhibition of Bacillus licheniformis subtilisin using Suc-Ala-Ala-Pro-Phe-AMC as substrate by spectrofluorometry
T1 sequence (whole entry): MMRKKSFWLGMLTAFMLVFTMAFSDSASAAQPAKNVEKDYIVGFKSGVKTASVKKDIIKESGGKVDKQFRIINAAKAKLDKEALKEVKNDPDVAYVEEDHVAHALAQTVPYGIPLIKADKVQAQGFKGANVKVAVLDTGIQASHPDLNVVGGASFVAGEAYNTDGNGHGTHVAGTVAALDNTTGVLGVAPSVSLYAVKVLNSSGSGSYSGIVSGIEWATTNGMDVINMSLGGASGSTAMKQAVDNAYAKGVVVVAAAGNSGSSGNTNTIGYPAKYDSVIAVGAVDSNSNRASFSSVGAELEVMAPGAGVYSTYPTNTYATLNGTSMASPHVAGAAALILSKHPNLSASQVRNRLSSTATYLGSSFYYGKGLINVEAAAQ

Plasminogen = Plasminogen (Homo sapiens, UniProt P00747); assay: Inhibition of human plasma plasmin using Biophen CS-21(66) as substrate; type: cell-free
Acetylcholinesterase = Acetylcholinesterase (Electrophorus electricus, UniProt O42275); assay: Inhibition of Electrophorus electricus AChE using acetylthiocholine iodide as substrate by 5-5'-Dithiobis(2 nitrobenzoic acid)-based assay
Kallikrein-4 [2] = target: T2, Kallikrein-4 (Homo sapiens, UniProt Q9Y5K2); assay: Inhibition of human recombinant KLK4 expressed in Escherichia coli using Bachem I-1120 as substrate preincubated for 15 mins followed by substrate addition by microplate reader analysis
[3] = target: T3, Kallikrein-2 (Homo sapiens) (UniProt P20151); assay: Irreversible inhibition of human recombinant KLK2 expressed in Escherichia coli using H-Pro-Phe-Arg-AMC as fluorogenic substrate at 100 times IC50 preincubated for 15 mins followed by 100 fold dilution measured for 1 hr
T3 sequence (whole entry): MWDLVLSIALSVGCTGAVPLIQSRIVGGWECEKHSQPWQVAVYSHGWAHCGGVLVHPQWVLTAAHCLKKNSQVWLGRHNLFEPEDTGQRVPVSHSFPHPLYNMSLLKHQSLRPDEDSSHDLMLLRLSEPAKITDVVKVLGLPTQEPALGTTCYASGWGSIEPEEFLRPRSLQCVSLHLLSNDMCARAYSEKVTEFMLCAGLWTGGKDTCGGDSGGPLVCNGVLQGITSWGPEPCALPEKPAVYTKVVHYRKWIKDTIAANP

Coagulation factor X = Coagulation factor X (Homo sapiens, UniProt P00742); assay: Inhibition of factor 10a (unknown origin) using Biophen CS-11(32) as substrate
Kallikrein-8 = target: T4, Kallikrein-8 (Homo sapiens, UniProt O60259); assay: Inhibition of human recombinant KLK8 expressed in Escherichia coli using Bachem I-1120 as substrate preincubated for 15 mins followed by substrate addition by microplate reader analysis
T4 sequence (O60259 whole entry): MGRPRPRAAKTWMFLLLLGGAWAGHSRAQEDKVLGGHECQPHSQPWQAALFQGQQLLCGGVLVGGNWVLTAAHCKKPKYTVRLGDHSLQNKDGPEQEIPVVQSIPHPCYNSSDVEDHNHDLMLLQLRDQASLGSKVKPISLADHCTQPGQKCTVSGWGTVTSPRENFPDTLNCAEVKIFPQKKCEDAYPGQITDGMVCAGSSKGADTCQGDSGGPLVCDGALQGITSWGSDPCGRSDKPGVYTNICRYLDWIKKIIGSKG

[4] = target: Urokinase-type plasminogen activator (Homo sapiens, UniProt P00749); assay: Inhibition of recombinant uPA (unknown origin) using Biophen CS-61(44) as substrate
[5] = target: T5, Kallikrein-8 (Homo sapiens) (UniProt O60259); assay: Reversible inhibition of human recombinant KLK8 expressed in Escherichia coli using Boc-Val-Pro-Arg-AMC as fluorogenic substrate at 100 times IC50 preincubated for 15 mins followed by 100 fold dilution measured for 1 hr
T5 sequence (whole entry): T4 sequence (O60259 whole entry)

Kallikrein-2 = target: T6, Kallikrein-2 (Homo sapiens, UniProt P20151); assay: Inhibition of human recombinant KLK2 expressed in Escherichia coli using Bachem I-1295 as substrate preincubated for 15 mins followed by substrate addition by microplate reader analysis
T6 sequence (P20151 whole entry): T3 sequence (whole entry)

Kallikrein-4 [6] = target: T2, Kallikrein-4; assay: Reversible inhibition of human recombinant KLK4 expressed in Escherichia coli using Bachem I-1120 as fluorogenic substrate at 100 times IC50 preincubated for 15 mins followed by 100 fold dilution measured for 1 hr by microplate reader analysis
Kallikrein-1 [7] = target: T7, Kallikrein-1 (Homo sapiens, UniProt P06870); assay: Inhibition of human recombinant KLK1 expressed in Escherichia coli using Bachem I-1295 as substrate preincubated for 15 mins followed by substrate addition by microplate reader analysis
Target sequence in this assay (P06870 whole entry): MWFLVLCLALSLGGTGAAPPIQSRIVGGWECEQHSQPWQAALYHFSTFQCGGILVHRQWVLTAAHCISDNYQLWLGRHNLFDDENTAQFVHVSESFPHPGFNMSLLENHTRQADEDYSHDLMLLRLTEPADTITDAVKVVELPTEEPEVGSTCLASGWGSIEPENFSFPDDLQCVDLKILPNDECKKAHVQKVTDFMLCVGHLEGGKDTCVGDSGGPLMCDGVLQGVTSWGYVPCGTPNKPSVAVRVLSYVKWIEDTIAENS

Prothrombin [8] = target: T8, Prothrombin (Homo sapiens, UniProt P00734); assay: Inhibition of human plasma thrombin using Biophen CS-21(66) as substrate preincubated for 15 mins followed by substrate addition by microplate reader analysis; type: cell-free
[9] = target: Tissue-type plasminogen activator (Homo sapiens, UniProt P00750); assay: Inhibition of recombinant tPA (unknown origin) using Biophen CS-05(88) as substrate
Kallikrein-1 [10] = target: T7, Kallikrein-1; assay: Irreversible inhibition of human recombinant KLK1 expressed in Escherichia coli using H-Pro-Phe-Arg-AMC as fluorogenic substrate at 100 times IC50 preincubated for 15 mins followed by 100 fold dilution measured for 1 hr
Target sequence in this assay (P06870 25-262 limits assumed): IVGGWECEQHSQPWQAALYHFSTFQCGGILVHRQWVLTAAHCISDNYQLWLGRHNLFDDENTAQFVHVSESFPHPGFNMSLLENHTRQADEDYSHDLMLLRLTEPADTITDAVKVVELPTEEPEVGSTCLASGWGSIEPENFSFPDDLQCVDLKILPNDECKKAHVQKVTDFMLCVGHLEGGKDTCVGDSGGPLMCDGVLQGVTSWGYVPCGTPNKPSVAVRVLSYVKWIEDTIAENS

Prothrombin [11] = target: T8, Prothrombin; assay: Reversible inhibition of human thrombin using Biophen CS-21(66) as substrate at 100 times IC50 preincubated for 15 mins followed by 100 fold dilution measured for 1 hr
[12] = target: T3, Kallikrein-2 (Homo sapiens); assay: Reversible inhibition of human recombinant KLK2 expressed in Escherichia coli using H-Pro-Phe-Arg-AMC as fluorogenic substrate at 100 times IC50 preincubated for 15 mins followed by 100 fold dilution measured for 1 hr

Plasminogen, sequence (P00747 97-580 limits assumed): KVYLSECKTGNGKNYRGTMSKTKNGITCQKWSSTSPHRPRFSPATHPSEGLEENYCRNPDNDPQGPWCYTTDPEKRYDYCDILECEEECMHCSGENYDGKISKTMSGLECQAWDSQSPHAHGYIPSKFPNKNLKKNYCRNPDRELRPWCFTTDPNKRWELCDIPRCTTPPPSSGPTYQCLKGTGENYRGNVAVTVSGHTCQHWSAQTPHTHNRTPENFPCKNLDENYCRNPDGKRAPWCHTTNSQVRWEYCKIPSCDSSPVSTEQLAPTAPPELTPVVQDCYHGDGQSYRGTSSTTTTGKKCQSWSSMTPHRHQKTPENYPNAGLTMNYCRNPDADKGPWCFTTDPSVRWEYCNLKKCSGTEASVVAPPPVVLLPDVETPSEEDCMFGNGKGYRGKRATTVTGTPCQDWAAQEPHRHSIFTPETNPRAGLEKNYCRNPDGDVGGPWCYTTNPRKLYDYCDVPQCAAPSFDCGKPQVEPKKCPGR
Plasminogen, sequence (P00747 581-810 limits assumed): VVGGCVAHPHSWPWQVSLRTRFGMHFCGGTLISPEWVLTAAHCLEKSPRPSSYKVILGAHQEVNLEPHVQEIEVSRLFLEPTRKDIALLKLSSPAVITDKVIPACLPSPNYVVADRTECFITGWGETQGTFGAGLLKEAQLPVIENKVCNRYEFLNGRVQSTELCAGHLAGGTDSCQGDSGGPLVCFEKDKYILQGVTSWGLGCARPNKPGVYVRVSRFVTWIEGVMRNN
Coagulation factor X, sequence (P00742 41-179 limits assumed): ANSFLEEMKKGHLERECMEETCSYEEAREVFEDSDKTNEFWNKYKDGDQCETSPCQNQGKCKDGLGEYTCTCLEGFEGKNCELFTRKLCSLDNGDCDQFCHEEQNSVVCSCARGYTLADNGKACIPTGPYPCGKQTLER
Coagulation factor X, sequence (P00742 235-488 limits assumed): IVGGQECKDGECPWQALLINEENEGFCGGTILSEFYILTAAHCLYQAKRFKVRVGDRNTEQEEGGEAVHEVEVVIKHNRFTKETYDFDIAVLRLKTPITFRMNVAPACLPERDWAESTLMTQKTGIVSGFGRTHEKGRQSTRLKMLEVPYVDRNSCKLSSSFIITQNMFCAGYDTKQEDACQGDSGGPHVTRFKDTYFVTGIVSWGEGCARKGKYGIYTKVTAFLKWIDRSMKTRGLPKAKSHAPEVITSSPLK
Acetylcholinesterase, sequence (O42275 whole entry): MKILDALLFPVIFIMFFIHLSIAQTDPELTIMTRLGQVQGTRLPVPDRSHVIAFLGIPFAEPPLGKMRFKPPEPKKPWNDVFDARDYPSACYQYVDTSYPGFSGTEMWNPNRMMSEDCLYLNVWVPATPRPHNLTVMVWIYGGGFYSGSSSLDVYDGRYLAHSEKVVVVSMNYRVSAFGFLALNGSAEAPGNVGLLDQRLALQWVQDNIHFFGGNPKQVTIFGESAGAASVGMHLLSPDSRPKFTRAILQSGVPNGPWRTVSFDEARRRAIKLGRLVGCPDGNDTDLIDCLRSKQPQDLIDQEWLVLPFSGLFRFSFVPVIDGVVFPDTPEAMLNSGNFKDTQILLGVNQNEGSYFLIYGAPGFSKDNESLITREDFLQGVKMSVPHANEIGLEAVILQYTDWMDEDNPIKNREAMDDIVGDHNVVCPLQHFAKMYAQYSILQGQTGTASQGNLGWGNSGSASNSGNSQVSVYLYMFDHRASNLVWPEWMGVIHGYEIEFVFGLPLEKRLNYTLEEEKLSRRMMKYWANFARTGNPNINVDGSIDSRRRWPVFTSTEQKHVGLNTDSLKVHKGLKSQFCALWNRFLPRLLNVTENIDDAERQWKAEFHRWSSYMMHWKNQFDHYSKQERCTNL
T2 sequence (Q9Y5K2 whole entry): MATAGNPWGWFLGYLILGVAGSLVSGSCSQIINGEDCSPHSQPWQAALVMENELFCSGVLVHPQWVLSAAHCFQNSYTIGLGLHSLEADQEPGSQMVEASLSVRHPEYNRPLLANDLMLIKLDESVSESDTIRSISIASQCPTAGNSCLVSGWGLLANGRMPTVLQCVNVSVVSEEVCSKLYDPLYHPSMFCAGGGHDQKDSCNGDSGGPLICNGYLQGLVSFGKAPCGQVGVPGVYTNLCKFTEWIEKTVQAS
Tissue-type plasminogen activator, sequence (P00750 whole entry): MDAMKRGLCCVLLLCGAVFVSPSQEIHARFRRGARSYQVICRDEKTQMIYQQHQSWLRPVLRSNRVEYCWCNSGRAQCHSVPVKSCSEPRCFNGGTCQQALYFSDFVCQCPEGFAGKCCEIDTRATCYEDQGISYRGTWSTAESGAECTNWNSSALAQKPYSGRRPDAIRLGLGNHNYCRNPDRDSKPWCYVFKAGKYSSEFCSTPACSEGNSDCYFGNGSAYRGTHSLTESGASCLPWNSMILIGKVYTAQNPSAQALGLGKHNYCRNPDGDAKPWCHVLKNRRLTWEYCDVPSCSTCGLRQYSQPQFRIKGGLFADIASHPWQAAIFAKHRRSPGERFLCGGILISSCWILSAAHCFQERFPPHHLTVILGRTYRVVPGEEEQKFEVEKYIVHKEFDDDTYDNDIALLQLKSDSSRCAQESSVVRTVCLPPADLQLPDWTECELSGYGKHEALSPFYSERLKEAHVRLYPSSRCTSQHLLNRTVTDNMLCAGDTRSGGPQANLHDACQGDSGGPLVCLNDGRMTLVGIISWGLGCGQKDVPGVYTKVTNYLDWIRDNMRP

Row | SMILES | Kapp [1] [×10⁵ /M/s] | IC50 (Plasminogen) [µM] | IC50 (Acetylcholinesterase) [µM] | IC50 (Kallikrein-4 [2]) [µM] | inhibition [3] | IC50 (Coagulation factor X) [µM] | IC50 (Kallikrein-8) [µM] | IC50 [4] [µM] | inhibition [5] | IC50 (Kallikrein-2) [µM] | reversible inhibition (activity call) (Kallikrein-4 [6]) | IC50 (Kallikrein-1 [7]) [µM] | IC50 (Prothrombin [8]) [µM] | IC50 [9] [µM] | inhibition (Kallikrein-1 [10]) | inhibition (Prothrombin [11]) | inhibition [12]
1 | CC(C)[C@H](NC(=O)OC(C)(C)C)C(=O)N1CCC[C@H]1C(=O)N[C@H](Cc1ccccc1)P(=O)(Oc1ccc(CS)cc1)Oc1ccc(CS)cc1 | 1 |  |  |  |  |  |  |  |  |  |  |  |  |  |  |  | 
2 | N=C(N)Nc1ccc(CP(=O)(Oc2ccccc2)Oc2ccccc2)cc1 |  | > 10 | > 10 | 0.25 | Active | > 10 | 1.44 | 1.4 | Active | 2.44 | Active | > 2.5 | > 10 | > 10 |  |  | 
3 | O=C(NC(c1ccc(O)cc1)P(=O)(Oc1ccccc1)Oc1ccccc1)OCc1ccccc1 (configuration not stated) |  | > 10 | > 10 | > 10 |  | > 10 | > 10 | > 10 |  | > 2.5 |  | 0.086 | > 10 | > 10 | Active |  | 
4 | N=C(N)Nc1ccc(CCP(=O)(Oc2ccccc2)Oc2ccccc2)cc1 |  | > 10 | > 10 | 0.08 | Active | > 10 | 0.17 | 0.0079 | Active | 3.02 | Active | > 2.5 | > 10 | > 10 |  |  | 
5 | N=C(N)Nc1ccc(CC(NC(=O)OCc2ccccc2)P(=O)(Oc2ccccc2)Oc2ccccc2)cc1 (configuration not stated) |  |  | > 20 |  |  | > 10 | 0.17 |  | Active | 0.53 | Active | > 10 |  |  |  | Active | Active
6 | NCCCC(NC(=O)OCc1ccccc1)P(=O)(Oc1ccccc1)Oc1ccccc1 (configuration not stated) |  | > 250 | > 10 | > 2.5 |  | > 250 | > 10 | > 250 |  | > 2.5 |  | > 10 | > 2.5 | > 2.5 |  |  | 
